Legend:
[1] = tested on: COR-L23; assay: cells; format: functional, cell-based; settings: Homo sapiens;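 also: cell viability assay measuring how strongly compounds suppress growth of COR-L23 cells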
Description: SANGER: Inhibition of human COR-L23 cell growth in a cell viability assay.

[2] = tested on: CaR-1; assay: cells; format: functional, cell-based; settings: Homo sapiens;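 also: growth inhibition of human CaR-1 cancer cells, read out with a cell viability assay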
Description: SANGER: Inhibition of human CaR-1 cell growth in a cell viability assay.

[3] = tested on: DK-MG; assay: cells; format: functional, cell-based; settings: Homo sapiens;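 also: growth inhibition of DK-MG cells, read out with a cell viability assay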
Description: SANGER: Inhibition of human DK-MG cell growth in a cell viability assay.

[4] = tested on: EB-3; assay: cells; format: functional, cell-based, Homo sapiens; settings: Homo sapiens, EB-3;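 also: human EB-3 cells, growth inhibition read out via a cell viability assay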
Description: SANGER: Inhibition of human EB-3 cell growth in a cell viability assay.

[5] = tested on: EB2; assay: cells; format: functional, cell-based, Homo sapiens; settings: Homo sapiens, EB2;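 also: growth inhibition of EB2 cells, read out with a cell viability assay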
Description: SANGER: Inhibition of human EB2 cell growth in a cell viability assay.

[6] = tested on: EC-GI-10; assay: cells; format: functional, cell-based, Homo sapiens; settings: Homo sapiens, EC-GI-10
Description: SANGER: Inhibition of human EC-GI-10 cell growth in a cell viability assay.

[7] = tested on: EW-24; assay: cells; format: functional, cell-based, Homo sapiens; settings: Homo sapiens, EW-24;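 also: human EW-24 cancer cell line, growth inhibition read out via a cell viability assay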
Description: SANGER: Inhibition of human EW-24 cell growth in a cell viability assay.

[8] = tested on: GP5d; assay: cells; format: functional, cell-based; settings: Homo sapiens;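 also: growth inhibition of human GP5d cells, read out with a cell viability assay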
Description: SANGER: Inhibition of human GP5d cell growth in a cell viability assay.

[9] = tested on: HCC1599; assay: cells; format: functional, cell-based, Homo sapiens; settings: Homo sapiens, HCC1599;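 also: growth inhibition of HCC1599 cells, read out in a cell viability assay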
Description: SANGER: Inhibition of human HCC1599 cell growth in a cell viability assay.

[10] = tested on: HCC38; assay: cells; format: functional, cell-based; settings: Homo sapiens;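 also: cell viability assay on the human HCC38 cell line, with IC50 marking the concentration that inhibits cell growth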
Description: SANGER: Inhibition of human HCC38 cell growth in a cell viability assay.

[11] = tested on: HCT-15; assay: cells; format: functional, cell-based; settings: Homo sapiens;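 also: cell viability readout, IC50 reflecting suppression of HCT-15 cell growth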
Description: SANGER: Inhibition of human HCT-15 cell growth in a cell viability assay.

[12] = tested on: HEC-1; assay: cells; format: functional, cell-based; settings: Homo sapiens;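 also: growth inhibition of the cell line, read out with a cell viability assay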
Description: SANGER: Inhibition of human HEC-1 cell growth in a cell viability assay.

[13] = tested on: HOS; assay: cells; format: functional, cell-based; settings: Homo sapiens;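 also: growth inhibition of human HOS cells, read out with a cell viability assay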
Description: SANGER: Inhibition of human HOS cell growth in a cell viability assay.

[14] = tested on: HT1197; assay: cells; format: functional, cell-based, HT-1197; settings: Homo sapiens
Description: SANGER: Inhibition of human HT-1197 cell growth in a cell viability assay.

[15] = tested on: IST-SL2; assay: cells; format: functional, cell-based, Homo sapiens; settings: Homo sapiens, IST-SL2;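 also: growth inhibition of human IST-SL2 cells, read out by a cell viability assay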
Description: SANGER: Inhibition of human IST-SL2 cell growth in a cell viability assay.

[16] = tested on: KARPAS-422; assay: cells; format: functional, cell-based, Homo sapiens; settings: Homo sapiens, KARPAS-422
Description: SANGER: Inhibition of human KARPAS-422 cell growth in a cell viability assay.

[17] = tested on: KYSE-140; assay: cells; format: functional, cell-based; settings: Homo sapiens;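 also: cell viability assay measuring growth inhibition in human KYSE-140 cells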
Description: SANGER: Inhibition of human KYSE-140 cell growth in a cell viability assay.

[18] = tested on: KYSE-450; assay: cells; format: functional, cell-based; settings: Homo sapiens;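 also: cell growth inhibition measured by a viability assay in human KYSE-450 cells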
Description: SANGER: Inhibition of human KYSE-450 cell growth in a cell viability assay.

[19] = tested on: KYSE-520 cell line; assay: cells; format: functional, cell-based; settings: Homo sapiens;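 also: growth inhibition of human KYSE-520 cells, read out with a viability assay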
Description: SANGER: Inhibition of human KYSE-520 cell growth in a cell viability assay.

[20] = tested on: KYSE-70 cell line; assay: cells; format: functional, cell-based; settings: Homo sapiens;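 also: cell viability assay read-out, with IC50 expressing suppression of KYSE-70 cell growth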
Description: SANGER: Inhibition of human KYSE-70 cell growth in a cell viability assay.

[21] = tested on: L-540; assay: cells; format: functional, cell-based, Homo sapiens; settings: Homo sapiens, L-540;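 also: growth inhibition of the human L-540 cell line, read out with a viability assay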
Description: SANGER: Inhibition of human L-540 cell growth in a cell viability assay.

[22] = tested on: LP-1; assay: cells; format: functional, cell-based, Homo sapiens; settings: Homo sapiens, LP-1;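 also: growth inhibition of human LP-1 cells, with the read-out taken from a cell viability assay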
Description: SANGER: Inhibition of human LP-1 cell growth in a cell viability assay.

[23] = tested on: LU-99A; assay: cells; format: functional, cell-based; settings: Homo sapiens;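 also: growth inhibition of LU-99A cells, read out with a cell viability assay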
Description: SANGER: Inhibition of human LU-99A cell growth in a cell viability assay.

[24] = tested on: MRK-nu-1; assay: cells; format: functional, cell-based, Homo sapiens; settings: Homo sapiens, MRK-nu-1;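 also: cell viability assay measuring growth suppression of human MRK-nu-1 cells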
Description: SANGER: Inhibition of human MRK-nu-1 cell growth in a cell viability assay.

[25] = tested on: NCCIT; assay: SANGER: Inhibition of human NCCIT cell growth in a cell viability assay.; format: functional, cell-based; settings: Homo sapiens, NCCIT
[26] = tested on: NCI-H1522; assay: cells; format: functional, cell-based, Homo sapiens; settings: Homo sapiens, NCI-H1522;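 also: growth inhibition of NCI-H1522 cells, read out with a cell viability assay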
Description: SANGER: Inhibition of human NCI-H1522 cell growth in a cell viability assay.

[27] = tested on: NCI-H2081; assay: cells; format: functional, cell-based, Homo sapiens; settings: Homo sapiens, NCI-H2081;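 also: growth inhibition of human NCI-H2081 cells, read out with a cell viability assay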
Description: SANGER: Inhibition of human NCI-H2081 cell growth in a cell viability assay.

[28] = tested on: NCI-H2087; assay: cells; format: functional, cell-based; settings: Homo sapiens;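 also: growth inhibition determined with a cell viability readout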
Description: SANGER: Inhibition of human NCI-H2087 cell growth in a cell viability assay.

[29] = tested on: NCI-H322M; assay: cells; format: functional, cell-based, Homo sapiens; settings: Homo sapiens, NCI-H322M;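 also: cell viability assay measuring inhibition of growth of human NCI-H322M cells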
Description: SANGER: Inhibition of human NCI-H322M cell growth in a cell viability assay.

[30] = tested on: NCI-H64; assay: cells; format: functional, cell-based, Homo sapiens; settings: Homo sapiens, NCI-H64;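 also: growth inhibition of NCI-H64 cells, read out with a cell viability assay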
Description: SANGER: Inhibition of human NCI-H64 cell growth in a cell viability assay.

[31] = tested on: NCI-H727; assay: cells; format: functional, cell-based; settings: Homo sapiens;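 also: growth inhibition of human NCI-H727 cells, read out with a cell viability assay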
Description: SANGER: Inhibition of human NCI-H727 cell growth in a cell viability assay.

[32] = tested on: SNU-16; assay: cells; format: functional, cell-based, Homo sapiens; settings: Homo sapiens, SNU-16;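 also: growth inhibition of human SNU-16 cells, determined with a cell viability readout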
Description: SANGER: Inhibition of human NCI-SNU-16 cell growth in a cell viability assay.

[33] = tested on: P12-Ichikawa; assay: cells; format: functional, cell-based; settings: Homo sapiens
[34] = tested on: PC-14; assay: cells; format: functional, cell-based; settings: Homo sapiens;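 also: cell viability assay measuring inhibition of PC-14 cell growth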
Description: SANGER: Inhibition of human PC-14 cell growth in a cell viability assay.

[35] = tested on: PFSK-1; assay: cells; format: functional, cell-based; settings: Homo sapiens;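 also: cell viability assay measuring how strongly compounds suppress growth of human PFSK-1 cells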
Description: SANGER: Inhibition of human PFSK-1 cell growth in a cell viability assay.

[36] = tested on: RERF-LC-MS; assay: cells; format: functional, cell-based; settings: Homo sapiens;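 also: growth inhibition of human RERF-LC-MS cells, read out by a cell viability assay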
Description: SANGER: Inhibition of human RERF-LC-MS cell growth in a cell viability assay.

[37] = tested on: RVH-421; assay: cells; format: functional, cell-based; settings: Homo sapiens
Description: SANGER: Inhibition of human RVH-421 cell growth in a cell viability assay.

[38] = tested on: SCC-4; assay: cells; format: functional, cell-based; settings: Homo sapiens;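 also: growth inhibition of human SCC-4 cells, read out as cell viability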
Description: SANGER: Inhibition of human SCC-4 cell growth in a cell viability assay.

[39] = tested on: SCC-9; assay: cells; format: functional, cell-based; settings: Homo sapiens;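 also: Read-out is a cell viability assay, with values giving inhibition of cell growth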
Description: SANGER: Inhibition of human SCC-9 cell growth in a cell viability assay.

[40] = tested on: SK-MEL-28; assay: cells; format: functional, cell-based; settings: Homo sapiens;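 also: growth inhibition of human SK-MEL-28 cells, read out with a cell viability assay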
Description: SANGER: Inhibition of human SK-MEL-28 cell growth in a cell viability assay.

[41] = tested on: SK-MEL-30; assay: cells; format: functional, cell-based; settings: Homo sapiens;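 also: growth inhibition of SK-MEL-30 cells, determined with a cell viability assay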
Description: SANGER: Inhibition of human SK-MEL-30 cell growth in a cell viability assay.

[42] = tested on: SNU-423; assay: cells; format: functional, cell-based; settings: Homo sapiens
Description: SANGER: Inhibition of human SNU-423 cell growth in a cell viability assay.

[43] = tested on: SNU-449; assay: cells; format: functional, cell-based; settings: Homo sapiens
Description: SANGER: Inhibition of human SNU-449 cell growth in a cell viability assay.

[44] = tested on: SW13; assay: cells; format: functional, cell-based; settings: Homo sapiens;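 also: IC50 is inhibition of SW13 cell growth, read out with a cell viability assay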
Description: SANGER: Inhibition of human SW13 cell growth in a cell viability assay.

[45] = tested on: SW948; assay: cells; format: functional, cell-based; settings: Homo sapiens;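 also: growth inhibition of SW948 cells, read out with a cell viability assay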
Description: SANGER: Inhibition of human SW948 cell growth in a cell viability assay.

[46] = tested on: 8305C; assay: cells; format: functional, cell-based; settings: Homo sapiens
Description: SANGER: Inhibition of human 8305C cell growth in a cell viability assay.

[47] = tested on: A-375; assay: cells; format: functional, cell-based; settings: Homo sapiens;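 also: growth inhibition of A375 cells, read out with a cell viability assay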
Description: SANGER: Inhibition of human A375 cell growth in a cell viability assay.

[48] = tested on: A-431; assay: cells; format: functional, cell-based; settings: Homo sapiens;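 also: growth inhibition of A-431 cells, determined with a cell viability read-out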
Description: SANGER: Inhibition of human A431 cell growth in a cell viability assay.

[49] = tested on: AU565; assay: cells; format: functional, cell-based; settings: Homo sapiens;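 also: cell viability assay measuring growth inhibition of human AU565 cells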
Description: SANGER: Inhibition of human AU565 cell growth in a cell viability assay.

[50] = tested on: BL-41; assay: cells; format: functional, cell-based; settings: Homo sapiens;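 also: growth inhibition of human BL-41 cells, read out with a cell viability assay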
Description: SANGER: Inhibition of human BL-41 cell growth in a cell viability assay.

[51] = tested on: BT-20; assay: cells; format: functional, cell-based; settings: Homo sapiens;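 also: cell viability assay measuring suppression of growth in human BT-20 cells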
Description: SANGER: Inhibition of human BT-20 cell growth in a cell viability assay.

[52] = tested on: C-33-A; assay: cells; format: functional, cell-based; settings: Homo sapiens;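 also: cell viability assay measuring growth inhibition of C-33-A cells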
Description: SANGER: Inhibition of human C-33-A cell growth in a cell viability assay.

[53] = tested on: CAL-27; assay: cells; format: functional, cell-based; settings: Homo sapiens;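 also: Viability-based readout, IC50 reflecting inhibition of CAL-27 cell growth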
Description: SANGER: Inhibition of human CAL-27 cell growth in a cell viability assay.

[54] = tested on: CAL-39; assay: cells; format: functional, cell-based; settings: Homo sapiens;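 also: cell viability assay measuring growth inhibition of CAL-39 cells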
Description: SANGER: Inhibition of human CAL-39 cell growth in a cell viability assay.

[55] = tested on: TE-441-T; assay: cells; format: functional, cell-based, Homo sapiens; settings: Homo sapiens, TE-441-T
Description: SANGER: Inhibition of human TE-441-T cell growth in a cell viability assay.

[56] = tested on: CHL-1; assay: cells; format: functional, cell-based; settings: Homo sapiens;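 also: cell growth inhibition, read out with a cell viability assay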
Description: SANGER: Inhibition of human CHL-1 cell growth in a cell viability assay.

OC[C@H](Cc1ccccc1)Nc1nc(Oc2ccc3c(c2)CCC3)nc2c1ncn2Cc1ccc(-c2ccccc2)cc1
IC50 [1]: 6.89 µM
IC50 [2]: > 10.2 µM
IC50 [3]: > 10.2 µM
IC50 [4]: > 10.2 µM
IC50 [5]: > 10.2 µM
IC50 [6]: > 10.2 µM
IC50 [7]: > 10.2 µM
IC50 [8]: > 10.2 µM
IC50 [9]: > 10.2 µM
IC50 [10]: > 10.2 µM
IC50 [11]: 2490 nM
IC50 [12]: > 10.2 µM
IC50 [13]: 3.08 µM
IC50 [14]: > 10.2 µM
IC50 [15]: > 10.2 µM
IC50 [16]: 4.93 µM
IC50 [17]: 7.49 µM
IC50 [18]: 8.47 µM
IC50 [19]: > 10.2 µM
IC50 [20]: > 10.2 µM
IC50 [21]: > 10.2 µM
IC50 [22]: > 10.2 µM
IC50 [23]: > 10.2 µM
IC50 [24]: > 10.2 µM
IC50 [25]: > 10.2 µM
IC50 [26]: > 10.2 µM
IC50 [27]: > 10.2 µM
IC50 [28]: > 10.2 µM
IC50 [29]: > 10.2 µM
IC50 [30]: > 10.2 µM
IC50 [31]: > 10.2 µM
IC50 [32]: > 10.2 µM
IC50 [33]: 7.93 µM
IC50 [34]: > 10.2 µM
IC50 [35]: > 10.2 µM
IC50 [36]: > 10.2 µM
IC50 [37]: > 10.2 µM
IC50 [38]: > 10.2 µM
IC50 [39]: > 10.2 µM
IC50 [40]: > 10.2 µM
IC50 [41]: 8.89 µM
IC50 [42]: > 10.2 µM
IC50 [43]: 1090 nM
IC50 [44]: > 10.2 µM
IC50 [45]: > 10.2 µM
IC50 [46]: 2760 nM
IC50 [47]: 6.87 µM
IC50 [48]: 3.32 µM
IC50 [49]: 6.47 µM
IC50 [50]: 3.69 µM
IC50 [51]: > 10.2 µM
IC50 [52]: > 10.2 µM
IC50 [53]: > 10.2 µM
IC50 [54]: > 10.2 µM
IC50 [55]: > 10.2 µM
IC50 [56]: > 10.2 µM

Reference: ChEMBL document CHEMBL1201861, “Genomics of Drug Sensitity in Cancer screening data, Wellcome Trust Sanger Institute”
